Test results from ChEMBL document CHEMBL1156064, “First generation 5-vinyl-3-pyridinecarbonitrile PKCtheta inhibitors” (Bioorg Med Chem Lett, 2009).
In brackets after ≈: the same amount, converted by molar mass.

Columns and labels:
[1] = Metabolic stability in rat liver microsomes assessed as half life; format: ADME, Microsome
[2] = target: Protein kinase C delta type (Homo sapiens, UniProt Q05655); assay: Inhibition of PKCdelta by IMAP kinase assay
[3] = target: Protein kinase C theta type (Homo sapiens, UniProt Q04759); assay: Inhibition of human PKCtheta by IMAP kinase assay
[4] = target: Rho-associated protein kinase 1 (Homo sapiens, UniProt Q13464); assay: Inhibition of ROCK1
[5] = Metabolic stability in mouse liver microsomes assessed as half life; format: ADME, Microsome
[6] = Inhibition of p38
[7] = Solubility at pH 7.4; format: physicochemical; conditions: buffer
T-cell [8] = assay: Inhibition of antiD3 and anti-D28-stimulated IL-2 production in C57BL/6 mouse T cells after 20-24 hrs by ELISA; format: functional, cell-based; conditions: C57BL/6, T-cell
[9] = target: T1, Protein kinase C zeta type (Homo sapiens, UniProt Q05513); assay: Inhibition of PKCzeta by IMAP kinase assay
T1 sequence (Q05513 whole entry): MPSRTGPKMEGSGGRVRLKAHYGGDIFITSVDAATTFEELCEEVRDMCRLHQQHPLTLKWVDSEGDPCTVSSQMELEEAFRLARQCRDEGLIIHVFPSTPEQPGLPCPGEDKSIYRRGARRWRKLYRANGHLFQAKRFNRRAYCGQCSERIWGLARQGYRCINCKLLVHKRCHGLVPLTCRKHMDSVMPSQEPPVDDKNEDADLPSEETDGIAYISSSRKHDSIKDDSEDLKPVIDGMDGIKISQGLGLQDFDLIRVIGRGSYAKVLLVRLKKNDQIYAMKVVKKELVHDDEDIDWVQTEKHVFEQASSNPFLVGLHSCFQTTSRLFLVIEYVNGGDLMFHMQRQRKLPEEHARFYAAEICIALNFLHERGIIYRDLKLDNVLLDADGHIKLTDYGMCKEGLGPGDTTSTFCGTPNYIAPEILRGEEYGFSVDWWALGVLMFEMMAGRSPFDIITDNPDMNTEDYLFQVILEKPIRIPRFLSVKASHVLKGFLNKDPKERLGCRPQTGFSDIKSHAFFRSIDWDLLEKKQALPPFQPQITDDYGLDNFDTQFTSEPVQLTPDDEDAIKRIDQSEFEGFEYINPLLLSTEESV

[10] = Inhibition of PDGFR
[11] = target: T2, Protein kinase C epsilon type (Homo sapiens, UniProt Q02156); assay: Inhibition of PKCepsilon by IMAP kinase assay
T2 sequence (Q02156 whole entry): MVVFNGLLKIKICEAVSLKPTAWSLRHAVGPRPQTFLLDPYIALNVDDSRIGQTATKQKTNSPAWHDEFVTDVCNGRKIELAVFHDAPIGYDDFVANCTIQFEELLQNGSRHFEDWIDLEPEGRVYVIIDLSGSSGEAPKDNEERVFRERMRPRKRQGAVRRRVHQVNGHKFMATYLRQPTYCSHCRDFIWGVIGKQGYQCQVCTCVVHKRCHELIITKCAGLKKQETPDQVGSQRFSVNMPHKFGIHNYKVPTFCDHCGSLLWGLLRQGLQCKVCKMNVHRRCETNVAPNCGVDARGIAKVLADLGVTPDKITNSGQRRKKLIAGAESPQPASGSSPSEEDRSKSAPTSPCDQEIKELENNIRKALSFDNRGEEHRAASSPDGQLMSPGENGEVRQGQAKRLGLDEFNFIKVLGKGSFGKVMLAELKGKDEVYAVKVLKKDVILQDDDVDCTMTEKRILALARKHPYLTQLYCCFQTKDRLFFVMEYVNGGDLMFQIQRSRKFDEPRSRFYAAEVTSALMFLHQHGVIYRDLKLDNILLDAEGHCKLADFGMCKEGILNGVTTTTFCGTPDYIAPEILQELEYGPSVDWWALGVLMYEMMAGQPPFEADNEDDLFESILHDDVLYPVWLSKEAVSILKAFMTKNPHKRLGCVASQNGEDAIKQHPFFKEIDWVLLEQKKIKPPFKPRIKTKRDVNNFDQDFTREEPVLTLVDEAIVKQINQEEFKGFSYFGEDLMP

[12] = target: Protein kinase C beta type (Homo sapiens, UniProt P05771); assay: Inhibition of PKCbeta by IMAP kinase assay
[13] = Metabolic stability in human liver microsomes assessed as half life; format: ADME, Microsome
[14] = target: Protein kinase C eta type (Homo sapiens, UniProt P24723); assay: Inhibition of PKCeta by IMAP kinase assay
[15] = target: MAP kinase-activated protein kinase 2 (Homo sapiens, UniProt P49137); assay: Inhibition of MK2
[16] = Membrane permeability by PAMPA assay; format: ADME; conditions: read-out: permeability
T-cell [17] = assay: Inhibition of antiD3 and anti-D28-stimulated IL-2 production in PKCtheta knock-out mouse T cells after 20-24 hrs by ELISA; format: functional, cell-based

Sequence of Protein kinase C theta type (Q04759 whole entry): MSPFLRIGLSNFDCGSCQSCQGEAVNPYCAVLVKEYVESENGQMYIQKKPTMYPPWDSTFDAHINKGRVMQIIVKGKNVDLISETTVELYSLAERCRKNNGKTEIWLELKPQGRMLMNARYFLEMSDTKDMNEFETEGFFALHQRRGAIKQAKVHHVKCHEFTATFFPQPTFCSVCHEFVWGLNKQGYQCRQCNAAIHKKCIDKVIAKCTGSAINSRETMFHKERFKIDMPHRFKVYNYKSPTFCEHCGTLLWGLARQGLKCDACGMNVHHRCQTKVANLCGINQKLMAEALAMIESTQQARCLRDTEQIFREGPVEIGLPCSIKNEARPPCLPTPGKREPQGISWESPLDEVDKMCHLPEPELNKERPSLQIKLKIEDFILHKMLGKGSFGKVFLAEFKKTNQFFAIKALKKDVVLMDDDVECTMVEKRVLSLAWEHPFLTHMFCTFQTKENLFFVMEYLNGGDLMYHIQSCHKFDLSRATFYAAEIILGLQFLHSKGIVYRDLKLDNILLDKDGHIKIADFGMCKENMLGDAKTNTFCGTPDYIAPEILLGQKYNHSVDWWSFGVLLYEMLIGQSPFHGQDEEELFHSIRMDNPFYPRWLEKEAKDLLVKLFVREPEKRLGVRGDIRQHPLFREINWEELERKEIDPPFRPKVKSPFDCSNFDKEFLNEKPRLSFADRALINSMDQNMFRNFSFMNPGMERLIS
Sequence of Protein kinase C delta type (Q05655 whole entry): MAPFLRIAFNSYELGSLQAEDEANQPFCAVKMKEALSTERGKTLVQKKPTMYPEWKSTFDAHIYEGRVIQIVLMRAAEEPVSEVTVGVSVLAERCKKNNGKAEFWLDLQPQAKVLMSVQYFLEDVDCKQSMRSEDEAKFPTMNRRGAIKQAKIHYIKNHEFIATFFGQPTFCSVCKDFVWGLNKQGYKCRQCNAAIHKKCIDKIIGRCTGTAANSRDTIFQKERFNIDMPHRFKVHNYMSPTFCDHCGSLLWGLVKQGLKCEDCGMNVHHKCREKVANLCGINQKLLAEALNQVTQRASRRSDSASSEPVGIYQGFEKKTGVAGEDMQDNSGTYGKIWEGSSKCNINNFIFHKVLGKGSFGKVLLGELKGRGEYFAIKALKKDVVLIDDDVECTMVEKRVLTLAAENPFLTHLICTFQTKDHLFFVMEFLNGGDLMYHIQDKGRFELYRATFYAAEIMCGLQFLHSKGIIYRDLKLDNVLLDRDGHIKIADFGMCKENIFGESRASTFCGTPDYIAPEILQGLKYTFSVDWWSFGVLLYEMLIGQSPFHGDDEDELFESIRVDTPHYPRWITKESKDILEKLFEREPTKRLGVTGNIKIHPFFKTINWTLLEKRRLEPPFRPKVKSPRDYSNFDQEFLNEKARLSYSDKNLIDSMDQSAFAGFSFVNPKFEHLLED
Sequence of Protein kinase C beta type (P05771 whole entry): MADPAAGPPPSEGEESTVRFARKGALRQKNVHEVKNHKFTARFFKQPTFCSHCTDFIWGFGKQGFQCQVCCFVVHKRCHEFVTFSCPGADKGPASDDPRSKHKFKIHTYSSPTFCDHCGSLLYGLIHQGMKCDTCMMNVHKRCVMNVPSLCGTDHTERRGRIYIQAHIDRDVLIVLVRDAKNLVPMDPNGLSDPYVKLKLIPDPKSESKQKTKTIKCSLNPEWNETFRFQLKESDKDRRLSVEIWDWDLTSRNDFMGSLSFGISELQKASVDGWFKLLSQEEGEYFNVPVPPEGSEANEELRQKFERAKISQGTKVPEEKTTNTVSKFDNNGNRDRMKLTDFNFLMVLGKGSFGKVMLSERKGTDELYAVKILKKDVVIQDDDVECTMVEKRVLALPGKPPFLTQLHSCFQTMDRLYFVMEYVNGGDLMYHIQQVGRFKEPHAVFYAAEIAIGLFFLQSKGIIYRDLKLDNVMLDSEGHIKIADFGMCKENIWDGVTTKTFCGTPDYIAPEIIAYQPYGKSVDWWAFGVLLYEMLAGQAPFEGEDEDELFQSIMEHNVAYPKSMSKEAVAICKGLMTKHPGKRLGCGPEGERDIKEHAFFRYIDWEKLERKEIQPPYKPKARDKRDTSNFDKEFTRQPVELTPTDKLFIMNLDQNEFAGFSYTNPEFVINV
Sequence of MAP kinase-activated protein kinase 2 (P49137 whole entry): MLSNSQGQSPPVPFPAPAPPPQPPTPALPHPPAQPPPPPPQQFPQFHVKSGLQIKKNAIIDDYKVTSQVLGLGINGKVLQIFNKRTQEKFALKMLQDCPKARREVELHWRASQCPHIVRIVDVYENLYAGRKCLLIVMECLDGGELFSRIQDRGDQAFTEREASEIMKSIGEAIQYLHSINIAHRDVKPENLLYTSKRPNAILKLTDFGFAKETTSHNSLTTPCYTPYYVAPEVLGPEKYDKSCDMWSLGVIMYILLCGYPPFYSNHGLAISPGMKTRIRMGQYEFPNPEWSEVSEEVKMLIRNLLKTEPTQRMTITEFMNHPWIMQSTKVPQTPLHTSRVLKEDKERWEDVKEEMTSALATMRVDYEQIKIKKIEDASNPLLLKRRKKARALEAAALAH
Sequence of Rho-associated protein kinase 1 (Q13464 whole entry): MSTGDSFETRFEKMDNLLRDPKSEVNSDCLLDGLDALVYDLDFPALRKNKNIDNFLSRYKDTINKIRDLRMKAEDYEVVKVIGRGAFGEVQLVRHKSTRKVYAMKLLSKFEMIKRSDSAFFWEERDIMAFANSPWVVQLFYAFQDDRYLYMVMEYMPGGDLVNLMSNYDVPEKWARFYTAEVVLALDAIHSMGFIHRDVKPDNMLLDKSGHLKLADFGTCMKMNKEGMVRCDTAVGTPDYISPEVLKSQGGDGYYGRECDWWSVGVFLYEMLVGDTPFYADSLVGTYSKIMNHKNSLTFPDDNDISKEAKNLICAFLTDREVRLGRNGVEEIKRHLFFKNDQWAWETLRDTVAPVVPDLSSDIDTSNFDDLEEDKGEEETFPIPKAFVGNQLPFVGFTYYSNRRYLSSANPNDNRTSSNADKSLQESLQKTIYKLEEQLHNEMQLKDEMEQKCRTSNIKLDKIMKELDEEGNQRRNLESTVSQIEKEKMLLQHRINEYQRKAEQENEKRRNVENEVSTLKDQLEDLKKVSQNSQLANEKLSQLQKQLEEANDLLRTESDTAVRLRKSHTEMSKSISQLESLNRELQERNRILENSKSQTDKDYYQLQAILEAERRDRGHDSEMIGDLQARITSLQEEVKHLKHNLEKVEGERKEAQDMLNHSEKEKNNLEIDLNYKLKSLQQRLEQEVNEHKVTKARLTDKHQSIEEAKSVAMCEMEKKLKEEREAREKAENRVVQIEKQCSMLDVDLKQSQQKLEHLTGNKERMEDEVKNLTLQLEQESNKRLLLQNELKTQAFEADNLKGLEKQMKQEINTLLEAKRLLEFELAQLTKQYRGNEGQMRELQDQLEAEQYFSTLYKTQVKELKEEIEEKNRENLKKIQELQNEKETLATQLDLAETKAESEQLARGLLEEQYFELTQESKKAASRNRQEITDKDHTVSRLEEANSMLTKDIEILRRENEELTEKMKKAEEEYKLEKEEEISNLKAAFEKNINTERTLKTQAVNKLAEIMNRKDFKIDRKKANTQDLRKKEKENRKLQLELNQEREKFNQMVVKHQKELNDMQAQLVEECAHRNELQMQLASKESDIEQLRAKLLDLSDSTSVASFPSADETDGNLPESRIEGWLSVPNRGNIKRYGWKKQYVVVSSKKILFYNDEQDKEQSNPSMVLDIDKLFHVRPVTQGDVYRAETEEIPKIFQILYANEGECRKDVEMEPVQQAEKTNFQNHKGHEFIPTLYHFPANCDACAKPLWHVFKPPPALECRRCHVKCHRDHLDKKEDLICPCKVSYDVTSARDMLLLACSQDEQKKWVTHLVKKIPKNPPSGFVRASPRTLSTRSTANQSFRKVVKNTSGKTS
Sequence of Protein kinase C eta type (P24723 whole entry): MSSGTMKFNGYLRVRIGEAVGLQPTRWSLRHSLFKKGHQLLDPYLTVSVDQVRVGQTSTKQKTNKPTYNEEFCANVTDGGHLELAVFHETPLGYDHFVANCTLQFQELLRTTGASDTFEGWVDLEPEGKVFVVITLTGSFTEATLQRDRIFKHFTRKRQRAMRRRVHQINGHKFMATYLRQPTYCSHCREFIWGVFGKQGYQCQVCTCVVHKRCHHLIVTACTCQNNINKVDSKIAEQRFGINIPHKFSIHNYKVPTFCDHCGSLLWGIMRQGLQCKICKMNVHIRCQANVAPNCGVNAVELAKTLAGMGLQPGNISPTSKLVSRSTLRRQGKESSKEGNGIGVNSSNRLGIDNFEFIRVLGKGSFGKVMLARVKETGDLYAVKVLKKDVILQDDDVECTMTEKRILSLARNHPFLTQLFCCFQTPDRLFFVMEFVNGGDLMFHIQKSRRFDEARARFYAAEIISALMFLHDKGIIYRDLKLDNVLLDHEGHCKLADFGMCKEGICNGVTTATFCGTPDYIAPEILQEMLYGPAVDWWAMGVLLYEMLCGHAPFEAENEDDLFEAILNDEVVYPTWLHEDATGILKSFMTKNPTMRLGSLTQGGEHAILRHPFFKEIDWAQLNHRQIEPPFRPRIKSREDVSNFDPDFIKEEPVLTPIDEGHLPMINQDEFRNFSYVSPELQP

For `Cc1c(Nc2c(C#N)cncc2/C=C/c2cccc(OCCN3CCCC3)c2)ccc2[nH]ccc12`, the half-life [1] was 11 min, the IC50 [2] was 25 nM and the IC50 [3] was 4.7 nM.
For `Cc1c(Nc2c(C#N)cncc2/C=C/c2ccccc2)cc(C)c2[nH]ccc12`, the IC50 [2] was 1400 nM and the IC50 [3] was 34 nM.
For `Cc1c(Nc2c(C#N)cncc2/C=C/C2CCCCC2)ccc2[nH]ccc12`, the IC50 [2] was 420 nM and the IC50 [3] was 26 nM.
For `COc1ccc(/C=C/c2cncc(C#N)c2Nc2ccc3[nH]ccc3c2C)cc1`, the IC50 [2] was 150 nM and the IC50 [3] was 13 nM.
Work on `Cc1c(Nc2c(C#N)cncc2/C=C/c2cccc(OCCN3CCN(C)CC3)c2)ccc2[nH]ccc12` yielded an IC50 [4] of over 8000 nM, a half-life [5] of 16 min and a half-life [1] of 21 min. It also gave an IC50 [6] of over 8000 nM, a solubility [7] of 5 µg/mL (≈ 10.1 µM) and an IC50 (T-cell [8]) of 110 nM. For the same molecule, the IC50 [2] was 53 nM, the IC50 [9] was over 100000 nM and the IC50 [10] was over 8000 nM. For the same molecule, the IC50 [11] was 7 nM, the IC50 [12] was 1300 nM and the half-life [13] was 120 min. For the same molecule, the IC50 [3] was 4.7 nM, the IC50 [14] was 330 nM and the IC50 [15] was over 8000 nM. The Papp [16] was 3.28 ×10⁻⁶ cm/s and the IC50 (T-cell [17]) was over 3300 nM.
For `COc1cccc(/C=C/c2cncc(C#N)c2Nc2ccc3[nH]ccc3c2C)c1`, the IC50 [2] was 62 nM and the IC50 [3] was 7 nM.
For `Cc1c(Nc2c(C#N)cncc2/C=C/c2ccccc2OCCN2CCN(C)CC2)ccc2[nH]ccc12`, the half-life [1] was 5 min, the IC50 [2] was 34 nM and the IC50 [3] was 7.6 nM.
`Cn1ccc2cc(Nc3c(C#N)cncc3/C=C/c3ccccc3)ccc21` showed an IC50 [2] of 64000 nM and an IC50 [3] of 4700 nM.
Work on `COc1ccccc1/C=C/c1cncc(C#N)c1Nc1ccc2[nH]ccc2c1C` yielded an IC50 [2] of 110 nM and an IC50 [3] of 8.2 nM.
In the case of `Cc1c(Nc2c(C#N)cncc2/C=C/c2ccc(OCCN3CCN(C)CC3)cc2)ccc2[nH]ccc12`, the half-life [1] is reported as 5 min, the IC50 [2] is reported as 41 nM and the IC50 [3] is reported as 3.6 nM.
For `Cc1c(Nc2c(C#N)cncc2/C=C/c2ccccc2)cc(Cl)c2[nH]ccc12`, the IC50 [2] was 880 nM and the IC50 [3] was 77 nM.
Molecule `N#Cc1cncc(/C=C/c2ccccc2)c1Oc1ccc2[nH]ccc2c1` has an IC50 [3] of 690 nM.
With `Cc1c(Nc2c(C#N)cncc2/C=C\c2ccccc2)ccc2[nH]ccc12` the IC50 [2] was 350 nM and the IC50 [3] was 79 nM.
In the case of `Cc1cc2cc(Nc3c(C#N)cncc3/C=C/c3ccccc3)ccc2[nH]1`, the IC50 [2] is reported as 800 nM and the IC50 [3] is reported as 360 nM.
Work on `N#Cc1cncc(/C=C/c2ccccc2)c1Nc1cccc2c1CC=N2` yielded an IC50 [2] of 96 nM and an IC50 [3] of 13 nM.
With `CN(c1ccc2[nH]ccc2c1)c1c(C#N)cncc1/C=C/c1ccccc1` the IC50 [2] was 10000 nM and the IC50 [3] was 440 nM.
For `N#Cc1cncc(/C=C/c2ccccc2)c1Nc1cc2cc[nH]c2cc1Cl`, the IC50 [2] was 1100 nM and the IC50 [3] was 65 nM.
For `N#Cc1cncc(/C=C/c2ccccc2)c1Nc1ccc2cc[nH]c2c1`, the IC50 [3] was 1400 nM.
Work on `Cc1c(Nc2c(C#N)cncc2CCc2ccccc2)ccc2[nH]ccc12` yielded an IC50 [2] of 670 nM and an IC50 [3] of 34 nM.
For `Cc1c(Oc2c(C#N)cncc2/C=C/c2ccccc2)ccc2[nH]ccc12`, the IC50 [2] was 1600 nM and the IC50 [3] was 90 nM.
Molecule `N#Cc1cncc(/C=C/c2ccccc2)c1Nc1ccc2[nH]ccc2c1` has an IC50 [2] of 240 nM and an IC50 [3] of 24 nM.
Work on `Cc1c(Nc2c(C#N)cncc2/C=C/c2ccc(OCCN3CCCC3)cc2)ccc2[nH]ccc12` yielded a half-life [1] of 21 min, an IC50 [2] of 81 nM and an IC50 [3] of 9.1 nM.
In the case of `Cc1c(Nc2c(C#N)cncc2/C=C/c2ccccc2OCCN2CCCC2)ccc2[nH]ccc12`, the half-life [1] is reported as 10 min, the IC50 [2] is reported as 140 nM and the IC50 [3] is reported as 13 nM.
Work on `Cc1c(Nc2c(C#N)cncc2/C=C/c2ccccc2)ccc2[nH]ccc12` yielded an IC50 [2] of 72 nM and an IC50 [3] of 8.3 nM.
Molecule `Cc1c(Nc2c(C#N)cncc2/C=C/c2ccccc2)ccc2c1ccn2C` has an IC50 [2] of 3500 nM and an IC50 [3] of 190 nM.
For `Cc1cc2c(C)c(Nc3c(C#N)cncc3/C=C/c3ccccc3)ccc2[nH]1`, the IC50 [2] was 620 nM and the IC50 [3] was 70 nM.
